What follows are compounds tested against phosphorylated active hERK2 enzyme (Homo sapiens (Human), UniProt P28482) (assay: Active Human ERK2 (hERK2) Activity Assay (IMAP-FP)). Conditions: Table 6, 0.5 nM hERK2, 30 μM ATP, 10 point titration, read-out: AERK2 IC50.
Format: biochemical
How it was run: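 IMAP detection beads in buffer with 24 mM NaCl stopped the reaction, and fluorescence polarization was read after 60 min binding.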

phosphorylated active hERK2 enzyme, sequence (P28482 whole entry): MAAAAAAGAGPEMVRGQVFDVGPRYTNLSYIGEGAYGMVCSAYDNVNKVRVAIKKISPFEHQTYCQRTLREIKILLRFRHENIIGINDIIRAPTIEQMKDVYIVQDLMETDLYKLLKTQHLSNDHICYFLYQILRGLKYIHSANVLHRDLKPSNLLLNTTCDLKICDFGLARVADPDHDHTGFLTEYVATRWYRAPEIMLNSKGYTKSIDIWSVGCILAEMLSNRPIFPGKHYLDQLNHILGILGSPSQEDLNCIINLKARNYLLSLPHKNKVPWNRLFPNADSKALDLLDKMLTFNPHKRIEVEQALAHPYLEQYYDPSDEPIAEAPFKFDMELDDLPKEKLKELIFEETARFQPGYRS

Structure (SMILES) | IC50 [nM]
CO[C@@H]1CCC[C@H]1NC(=O)Nc1cc2[nH]nc(N)c2cn1 [Example 416, 1-(3-amino-1H-pyrazolo[4,3-c]pyridin-6-yl)-3-[(1R,2R)-2-methoxy-cyclopentyl]urea] | 483
COC[C@@H](NC(=O)Nc1cc2[nH]nc(NC(C)C(F)(F)F)c2cn1)c1ccccc1 (stereo partly drawn) [Example 417, 1-[(1S)-2-methoxy-1-phenylethyl]-3-{3-[(2,2,2-trifluoro-1-methylethyl)-amino]-1H-pyrazolo[4,3-c]-pyridin-6-yl}urea] | 0.6
CC(Nc1n[nH]c2cc(NC(=O)N[C@H](C)c3ccccc3)ncc12)C(F)(F)F (stereo partly drawn) [Example 418, 1-[(1R)-1-phenylethyl]-3-{3-[(2,2,2-trifluoro-1-methylethyl)amino]-1H-pyrazolo[4,3-c]pyridin-6-yl}urea] | 3.2
CC(Nc1n[nH]c2cc(NC(=O)N[C@H](C)c3ccccc3)ncc12)C(F)(F)F (stereo partly drawn) [Example 419, 1-[(1R)-1-phenylethyl]-3-{3-[(2,2,2-trifluoro-1-methylethyl)amino]-1H-pyrazolo[4,3-c]pyridin-6-yl}urea] | 2.2
CCNc1n[nH]c2cc(NC(=O)N[C@@H](c3ccccc3)C(C)(C)O)ncc12 [Example 420, 1-[3-(ethylamino)-1H-pyrazolo[4,3-c]pyridin-6-yl]-3-[(1S)-2-hydroxy-2-methyl-1-phenylpropyl]urea] | 2.1
COC[C@@H](NC(=O)Nc1cc2[nH]nc(NC(C)C(F)(F)F)c2cn1)c1ccccc1 (stereo partly drawn) [Example 421, 1-[(1S)-2-methoxy-1-phenylethyl]-3-{3-[(2,2,2-trifluoro-1-methylethyl)-amino]-1H-pyrazolo[4,3-c]-pyridin-6-yl}urea] | 0.6
COC[C@@H](NC(=O)Nc1cc2[nH]nc(NC(C)C(F)(F)F)c2cn1)c1ccccc1 (stereo partly drawn) [Example 422, 1-[(1S)-2-methoxy-1-phenylethyl]-3-{3-[(2,2,2-trifluoro-1-methylethyl)-amino]-1H-pyrazolo[4,3-c]-pyridin-6-yl}urea] | 0.8
C[C@@H](NC(=O)Nc1cc2[nH]nc(N3CCC(C#N)CC3)c2cn1)c1ccccc1 [Example 423, 1-[3-(4-cyanopiperidin-1-yl)-1H-pyrazolo[4,3-c]-pyridin-6-yl]-3-[(1R)-1-phenylethyl]urea] | 9.7
C[C@@H](NC(=O)Nc1cc2[nH]nc(N3CCC(C)(O)CC3)c2cn1)c1ccccc1 [Example 424, 1-[3-(4-hydroxy-4-methylpiperidin-1-yl)-1H-pyrazolo[4,3-c]-pyridin-6-yl]-3-[(1R)-1-phenylethyl]urea] | 21.5
CC(C)(O)[C@@H](NC(=O)Nc1cc2[nH]nc(N)c2cn1)c1ccccc1 [Example 425, 1-(3-amino-1H-pyrazolo[4,3-c]-pyridin-6-yl)-3-[(1S)-2-hydroxy-2-methyl-1-phenylpropyl]urea] | 14.9
COC1CCN(c2n[nH]c3cc(NC(=O)N[C@H](COC(F)F)c4ccccc4)ncc23)CC1 [Example 426, 1-[(1S)-2-(difluoromethoxy)-1-phenylethyl]-3-[3-(4-methoxy-piperidin-1-yl)-1H-pyrazolo[4,3-c]-pyridin-6-yl]urea] | 1
CSC1CCN(c2n[nH]c3cc(NC(=O)N[C@H](C)c4ccccc4)ncc23)CC1 [Example 427, 1-{3-[4-(methylsulfanyl)-piperidin-1-yl]-1H-pyrazolo[4,3-c]-pyridin-6-yl}-3-[(1R)-1-phenylethyl]urea] | 15.1
CC(Nc1n[nH]c2cc(NC(=O)N[C@H](COC(F)F)c3ccccc3)ncc12)C(F)(F)F (stereo partly drawn) [Example 428, 1-[(1S)-2-(difluoromethoxy)-1-phenylethyl]-3-{3-[(2,2,2-trifluoro-1-methylethyl)-amino]-1H-pyrazolo[4,3-c]-pyridin-6-yl}urea] | 1.3
CCNc1n[nH]c2cc(NC(=O)NC(c3ccc(F)cc3)C(C)(C)O)ncc12 (stereo not shown) [Example 429, 1-[3-(ethylamino)-1H-pyrazolo[4,3-c]pyridin-6-yl]-3-[1-(4-fluorophenyl)-2-hydroxy-2-methylpropyl]urea] | 1.1
CCNc1n[nH]c2cc(NC(=O)NC(c3ccc(F)cc3)C(C)(C)OC)ncc12 (stereo not shown) [Example 430, 1-[3-(ethylamino)-1H-pyrazolo[4,3-c]pyridin-6-yl]-3-[1-(4-fluorophenyl)-2-methoxy-2-methylpropyl]urea] | 0.6
CCNc1n[nH]c2cc(NC(=O)N[C@@H](c3ccccc3)C(C)(C)OC)ncc12 [Example 431, 1-[3-(ethylamino)-1H-pyrazolo[4,3-c]pyridin-6-yl]-3-[(1S)-2-methoxy-2-methyl-1-phenylpropyl]urea] | 0.5
COC(C)(C)C(NC(=O)Nc1cc2[nH]nc(N3C[C@@H](C)O[C@@H](C)C3)c2cn1)c1ccc(F)cc1 (stereo partly drawn) [Example 432, 1-{3-[(2R,6S)-2,6-dimethylmorpholin-4-yl]-1H-pyrazolo[4,3-c]-pyridin-6-yl}-3-[1-(4-fluorophenyl)-2-methoxy-2-methylpropyl]urea] | 2.4

Structure (SMILES) | IC50 [nM]
CC(C)(O)[C@@H](NC(=O)Nc1cc2[nH]nc(N3CCOCC3)c2cn1)c1ccccc1 [Example 433, 1-[(1S)-2-hydroxy-2-methyl-1-phenylpropyl]-3-(3-morpholin-4-yl-1H-pyrazolo[4,3-c]-pyridin-6-yl)urea] | 0.5
CC(Nc1n[nH]c2cc(NC(=O)N[C@@H](c3ccccc3)C(C)(C)O)ncc12)C(F)(F)F (stereo partly drawn) [Example 434, 1-[(1S)-2-hydroxy-2-methyl-1-phenylpropyl]-3-{3-[(2,2,2-trifluoro-1-methylethyl)-amino]-1H-pyrazolo[4,3-c]-pyridin-6-yl}urea] | 0.7
C[C@@H]1CN(c2n[nH]c3cc(NC(=O)NC(c4ccc(F)cc4)C(C)(C)O)ncc23)C[C@H](C)O1 (stereo partly drawn) [Example 435, 1-{3-[(2R,6S)-2,6-dimethylmorpholin-4-yl]-1H-pyrazolo[4,3-c]-pyridin-6-yl}-3-[1-(4-fluorophenyl)-2-hydroxy-2-methylpropyl]urea] | 1.6
C[C@@H]1CN(c2n[nH]c3cc(NC(=O)N[C@@H](c4ccccc4)C(C)(C)O)ncc23)C[C@H](C)O1 [Example 436, 1-{3-[(2R,6S)-2,6-dimethylmorpholin-4-yl]-1H-pyrazolo[4,3-c]-pyridin-6-yl}-3-[(1S)-2-hydroxy-2-methyl-1-phenylpropyl]urea] | 0.8
O=C(Nc1cc2[nH]nc(N3CCOCC3)c2cn1)N[C@H](CO)c1ccccc1 [Example 437, 1-[(1S)-2-hydroxy-1-phenylethyl]-3-(3-morpholin-4-yl-1H-pyrazolo[4,3-c]pyridin-6-yl)urea] | 0.4
CC(C)(O)[C@@H](NC(=O)Nc1cc2[nH]nc(N3CCOCC3)c2cn1)c1ccc(F)cc1 [Example 438, 1-[(1S)-1-(4-fluorophenyl)-2-hydroxy-2-methylpropyl]-3-(3-morpholin-4-yl-1H-pyrazolo[4,3-c]-pyridin-6-yl)urea] | 0.4
O=C(Nc1cc2[nH]nc(N3CC4CCC(C3)O4)c2cn1)N[C@H](CO)c1ccccc1 [Example 439, 1-[(1S)-2-hydroxy-1-phenylethyl]-3-[3-(8-oxa-3-azabicyclo[3.2.1]-oct-3-yl)-1H-pyrazolo[4,3-c]-pyridin-6-yl]urea] | 1.9
O=C(Nc1cc2[nH]nc(N3CCOCC3)c2cn1)N[C@H](COC(F)F)c1ccccc1 [Example 440, 1-[(1S)-2-(difluoromethoxy)-1-phenylethyl]-3-(3-morpholin-4-yl-1H-pyrazolo[4,3-c]pyridin-6-yl)urea] | 0.4
COC[C@@H](NC(=O)Nc1cc2[nH]nc(N3CC4CCC(C3)O4)c2cn1)c1ccccc1 [Example 441, 1-[(1S)-2-methoxy-1-phenylethyl]-3-[3-(8-oxa-3-azabicyclo[3.2.1]-oct-3-yl)-1H-pyrazolo[4,3-c]-pyridin-6-yl]urea] | 0.9
CC(C)(O)[C@@H](NC(=O)Nc1cc2[nH]nc(N3CC4CCC(C3)O4)c2cn1)c1ccccc1 [Example 442, 1-[(1S)-2-hydroxy-2-methyl-1-phenylpropyl]-3-[3-(8-oxa-3-azabicyclo[3.2.1]-oct-3-yl)-1H-pyrazolo[4,3-c]-pyridin-6-yl]urea] | 0.5
CC(C)(O)[C@@H](NC(=O)Nc1cc2[nH]nc(N)c2cn1)c1ccc(F)cc1 [Example 443, 1-(3-amino-1H-pyrazolo[4,3-c]-pyridin-6-yl)-3-[(1S)-1-(4-fluorophenyl)-2-hydroxy-2-methylpropyl]urea] | 0.7
C[C@@H](NC(=O)Nc1cc2[nH]nc(N)c2c(Cl)n1)c1ccccc1 [Example 444, 1-(3-amino-4-chloro-1H-pyrazolo[4,3-c]-pyridin-6-yl)-3-[(1R)-1-phenylethyl]urea] | 1.2
CC(C)(O)[C@@H](NC(=O)Nc1cc2[nH]nc(N3CC4CC3CO4)c2cn1)c1ccc(F)cc1 (stereo partly drawn) [Example 446, 1-[(1S)-1-(4-fluorophenyl)-2-hydroxy-2-methylpropyl]-3-[3-(2-oxa-5-azabicyclo[2.2.1]hept-5-yl)-1H-pyrazolo[4,3-c]pyridin-6-yl]urea] | 0.8
CC(C)(O)[C@@H](NC(=O)Nc1cc2[nH]nc(N3CC4CC3CO4)c2cn1)c1ccccc1 (stereo partly drawn) [Example 447, 1-[(1S)-2-hydroxy-2-methyl-1-phenylpropyl]-3-[3-(2-oxa-5-azabicyclo[2.2.1]-hept-5-yl)-1H-pyrazolo[4,3-c]-pyridin-6-yl]urea] | 1.5
CCNc1n[nH]c2cc(NC(=O)N[C@@H](c3ccc(F)cc3)C(C)(C)O)ncc12 [Example 448, 1-[3-(ethylamino)-1H-pyrazolo[4,3-c]pyridin-6-yl]-3-[(1S)-1-(4-fluorophenyl)-2-hydroxy-2-methylpropyl]urea] | 0.4
C[C@@H](NC(=O)Nc1cc2[nH]nc(N3CC4CC3CO4)c2cn1)c1ccccc1 (stereo partly drawn) [Example 449, 1-[3-(2-oxa-5-azabicyclo[2.2.1]-hept-5-yl)-1H-pyrazolo[4,3-c]-pyridin-6-yl]-3-[(1R)-1-phenylethyl]urea] | 6
O=C(Nc1cc2[nH]nc(N3CC4CC3CO4)c2cn1)N[C@H](CO)c1ccccc1 (stereo partly drawn) [Example 450, 1-[(1S)-2-hydroxy-1-phenylethyl]-3-[3-(2-oxa-5-azabicyclo[2.2.1]-hept-5-yl)-1H-pyrazolo[4,3-c]-pyridin-6-yl]urea] | 4.3
